For one series, the system named is A549 NSCLC xenograft. Kind of series: Example 4-D antitumor efficacy, ectopic A549 NSCLC xenograft model. Type of series: in vivo, female nude mice (nu/nu). An excerpt:
(§1) Specific pathogen-free homozygous female nude mice (nu/nu, Charles River Laboratories) were used. Mice were given food and water ad libitum and housed in microisolator cages. Four to six week old animals were identified by microchips (Locus Technology, Manchester, Md., USA) at the time of the experiments. All animal studies were approved by the Institutional Animal Care and Use Committee at Threshold Pharmaceuticals, Inc.
(§2) All cell lines were from the American Type Culture Collection (ATCC, Rockville, Md., USA).
(§3) Cells were mixed with Matrigel (50% with exception for 30% in the H460) and 0.2 ml per mouse were subcutaneously implanted to the flank area of the animals. When tumor size reached 100-150 250 mm3, mice were randomized into experimental or vehicle groups with 10 mice/group and treatment was started (Day 1). The tested compounds were formulated in 5% DMSO in D5W. The regimens employed in the examples include IP, QD×5/wk (5 days on, 2 days off) as one cycle, for a total of 2 cycles; IP, once; IP, weekly for total 3 weeks; and IV, weekly for 3 weeks. Tumor growth and body weight were measured twice a week. Tumor volume was calculated as (length×width2)/2. Drug efficacy was assessed as Tumor Growth Inhibition (TGI) and Tumor Growth Delay (TGD). TGI was defined as (1−ΔT/ΔC)×100, where ΔT/ΔC presented the ratio of the change in mean (or median, if variation within the group was relatively large) tumor volume of the treated group and of the control group. TGD was calculated as the extra days for the treated tumor to reach 500 mm3 or 1000 mm3 as compared to the control group. Animals were culled when individual tumor size reached over 2000 mm3 or mean tumor volume exceeded 1000 mm3 in the group. Data are expressed as the mean±SEM. One-way analysis of variance with Dunnett post comparison test (GraphPad Prism 4) or two-tailed student's t-test were used for analysis. A P level <0.05 was considered statistically significant.
(§4) The compounds were tested in another A549 model. The compounds were dosed as follows. Daily IP dosing: 5 doses then 2 days off then 5 more doses starting at 100 mm^3 tumors on day 1 (10 animals per group average tumor volume). The antitumor effects and the safety of administration are graphically illustrated below.

Series [1] in a line: Example 4-D body weight change and lethal toxicity, A549 xenograft study. Type of series: in vivo, female nude mice (nu/nu). The procedure:
as §3, §4

Another series concerns H460 cells. The series is described as follows: Proliferation assay in H460 cells (2 hr exposure, AlamarBlue). The conditions noted are these: Homo sapiens, NCI-H460, 2 hrs exposure, wash, 70 hrs growth, read-out: IC 50 in proliferation assay in H460 cells. Type of series: cell-based, human. As for the experimental part: In vitro proliferation data on the H460 […] human tumor cell line is reported above in the compound table.
Specifically, exponentially growing cells were seeded at a density of 4×10^3 cells per well in a 96 well plate and incubated at 37° C. in 5% CO2, 95% air and 100% relative humidity for 24 hours prior to addition of test compounds. Compounds were solubilized in 100% DMSO at 200 times the desired final test concentration. At the time of drug addition, compounds were further diluted to 4 times the desired final concentration with complete medium. Aliquots of 50 μl of compound at specified concentrations were added to microtiter wells already containing 150 μl of medium, resulting in the final drug concentration reported. After drug addition, the plates were incubated for an additional 2 hours at 37° C., 5% CO2, 95% air, and 100% relative humidity, then the drug was washed off and fresh medium was added and the plates were incubated for addition 70 hrs at 37° C., 5% CO2, 95% air and 100% relative humidity. At the end of this incubation, the viable cells were quantified using the AlamarBlue assay. The drug concentration resulting in growth inhibition of 50% (IC50) was calculated using Prism software (Irvine, Calif.), and the results were listed in the table.
On the technique in general: The colour change of resazurin is a common sign of viable cells or microbes.

Series [2] can be described thus: Example 4-C body weight change, A375 xenograft study. Type of series: in vivo, female nude mice (nu/nu). The settings on record: qd × 5 × 2, ip. As for the experimental part:
as §3
his study employed an A375 melanoma human tumor xenograft model and various compounds provided herein were compared to thiotepa and the approved anti melanoma drug, nab-Paclitaxel. The antitumor effects and the safety of administration are graphically illustrated below.

For series [3], the system named is A375 melanoma human tumor xenograft. The series is described as follows: Example 4-C antitumor efficacy, ectopic A375 melanoma xenograft model. The conditions noted are these: qd × 5 × 2, ip; for inhibition in vivo at 10 mg/kg: A-375, 10 mpk. Type of series: in vivo, female nude mice (nu/nu).
Text: as §1, §2, §3
his study employed an A375 melanoma human tumor xenograft model and various compounds provided herein were compared to thiotepa and the approved anti melanoma drug, nab-Paclitaxel.

Series [4] in a line: Pharmacokinetics in CD-1 mice following a single intraperitoneal dose (parent and TH2660). The conditions noted are these: mouse, in vivo, ip, parent compound. As for the experimental part: The pharmacokinetics of TH2873, TH2883, TH2888, TH2890, TH2901 and TH2926 were determined in CD-1 mice following a single intraperitoneal dose.
The pharmacokinetics of TH2660, the active metabolite, following a single intraperitoneal dose of TH2873, TH2883, TH2888, TH2890, TH2901 and TH2926 are shown below.

The next series deals with T1, AKR1C3 (Homo sapiens, UniProt P42330).
T1 sequence (P42330 1-323): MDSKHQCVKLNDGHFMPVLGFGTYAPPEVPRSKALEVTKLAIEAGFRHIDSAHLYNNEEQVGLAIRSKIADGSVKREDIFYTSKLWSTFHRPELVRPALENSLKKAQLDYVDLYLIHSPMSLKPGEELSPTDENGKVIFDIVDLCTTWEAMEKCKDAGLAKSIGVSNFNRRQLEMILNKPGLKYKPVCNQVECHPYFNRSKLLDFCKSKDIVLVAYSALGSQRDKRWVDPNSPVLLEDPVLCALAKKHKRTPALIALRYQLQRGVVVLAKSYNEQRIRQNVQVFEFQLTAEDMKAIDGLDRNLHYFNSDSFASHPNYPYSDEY
Kind of series: Activation by the aldoketo reductase AKR1C3 (% remaining, LC/MS/MS). Type of series: biochemical. The settings on record: for % Remaining: 5 μM, 25 μg/mL AKR1C3, 2 mM NADPH, 37° C. As for the experimental part: Recombinant human AKR1C3 was diluted to 25 μg/mL in phosphate buffered saline (PBS), pH 7.4 (37° C.), containing 2 mM NADPH. TH2870 or progesterone (positive control) in 30% methanol/70% water was added to the reaction mixture at a final concentration of 5 μM and incubated at 37° C. for 120 minutes. At various times up to 120 min, 50 μL of the reaction mixture was taken and 200 μL acetonitrile containing propranolol as internal standard was added, vortex-mixed and centrifuged for 10 min. The resulting supernatant (5 μL) was injected into a LC/MS/MS for quantitation of % remaining TH2870 and progesterone. The compounds were tested in duplicate.

The mark [5] stands for this setting: 10 mg/kg IP QD × 5/wk × 2 wks, 10 animals per group.

Structures are written as SMILES.

The TGI is how far tumour growth fell short of that in controls. With `CC(OP(=O)(N1CC1)N1CC1)c1ccc([N+](=O)[O-])c(Oc2ccc3ncccc3c2)c1` (stereo not drawn) [Compound 2952], in the series with A549 NSCLC xenograft (20 mg/kg IP QD × 5/wk × 2 wks), the “TGD 500” value is reported as 70 days and the TGI amounted to 91.8%. Besides, the “Max. BW loss %” value in series [1] (20 mg/kg IP QD × 5/wk × 2 wks) is given as 1.2%. The “Lethal Tox” value in series [1] (20 mg/kg IP QD × 5/wk × 2 wks, 10 animals per group) was found to be 1. In addition, the IC50 with H460 cells came out at 3 nM.
On to `CC(OP(=O)(N1CC1)N1CC1)c1ccc([N+](=O)[O-])c(Oc2ccc3ccccc3c2)c1` (stereo not drawn) [Compound 2955], for which, in the series on A549 NSCLC xenograft (40 mg/kg IP QD × 5/wk × 2 wks), the “TGD 500” value turned out to be 47 days and the TGI amounted to 78.9%. For the same compound, the “Max. BW loss %” value in series [1] (40 mg/kg IP QD × 5/wk × 2 wks) is listed as 0.6%. Further, the “Lethal Tox” value in series [1] (40 mg/kg IP QD × 5/wk × 2 wks, 10 animals per group) stood at 1. Besides, the IC50 with H460 cells was determined as 6 nM.
What is called AUC is concentration integrated over time. Broadly, the Cmax is the maximum level reached in the sampled fluid or tissue. As a reminder, the Tmax is the time at which the peak concentration occurs. The term half-life denotes the time in which the quantity being followed falls by half. With `Cc1ccc(Oc2cc(COP(=O)(N3CC3)N3CC3)ccc2[N+](=O)[O-])cn1` [Compound 2890], the “Max. BW loss %” value in series [2] (10 mpk) amounted to 6.3%. Further, in the series on H460 cells, the IC50 is 6 nM. In series [3] (10 mpk), the “TGD 500” value is 10 days and the “TGD 1000” value amounted to 10 days. Besides, the inhibition in vivo at 10 mg/kg in series [3] (Mus musculus, read-out: TGI) worked out at 58.4%. For the same compound, in series [4], the AUC is 613 ng·h/mL, the Cmax worked out at 2730 ng/mL, the time to peak (Tmax) is 5 min and the half-life came to 5.49 min.
In the case of `O=[N+]([O-])c1ccc(COP(=O)(N2CC2)N2CC2)cc1Oc1ccc(-c2ccccc2)cc1` [Compound 2958], in the series on A549 NSCLC xenograft (5 mg/kg IP QD × 5/wk × 2 wks), the “TGD 500” value worked out at 44 days and the TGI turned out to be 77.9%. Further, the “Max. BW loss %” value in series [1] (5 mg/kg IP QD × 5/wk × 2 wks) was 2.1%. Further, in series [1] (5 mg/kg IP QD × 5/wk × 2 wks, 10 animals per group), the “Lethal Tox” value worked out at 0. In the series with H460 cells, the IC50 turned out to be 2 nM.
With `Cc1nc2ccc(Oc3cc(COP(=O)(N4CC4)N4CC4)ccc3[N+](=O)[O-])cc2s1` [Compound 2931], the “Max. BW loss %” value in series [1] (5 mg/kg IP QD × 5) is on record as 25.0%. Also, the “Lethal Tox” value in series [1] (5 mg/kg IP QD × 5, 10 animals per group) was found to be 10. The IC50 in the series with H460 cells stood at 1 nM.
Take `COc1ccc(Oc2cc(C(C)OP(=O)(N3CC3)N3CC3)ccc2[N+](=O)[O-])cc1` (stereo not drawn) [Compound 2873]: the “Max. BW loss %” value in series [2] (40 mpk) amounted to 0%. Besides, in the series on H460 cells, the IC50 amounted to 5 nM. Also, in series [3] (40 mpk), the “TGD 500” value stood at 12 days and the “TGD 1000” value is on record as 11 days. In addition, the inhibition in vivo at 40 mg/kg in series [3] (Mus musculus, A-375, 40 mpk, read-out: TGI) worked out at 65%. Further, in series [4], the AUC was 2100 ng·h/mL, the Cmax was found to be 8430 ng/mL, the Tmax is 5 min and the half-life came out at 8.81 min.
Take `CS(=O)(=O)c1ccc(Oc2cc(COP(=O)(N3CC3)N3CC3)ccc2[N+](=O)[O-])cc1` [Compound 2911]: in the series with A549 NSCLC xenograft (10 mg/kg IP QD × 5/wk × 2 wks), the “TGD 500” value was 63 days and the TGI came to 88.7%. For the same compound, the “Max. BW loss %” value in series [1] (10 mg/kg IP QD × 5/wk × 2 wks) worked out at 11.1%. Also, the “Lethal Tox” value in series [1] (setting [5]) is recorded as 0. The IC50 in the series with H460 cells was 8 nM.
As for `O=[N+]([O-])c1ccc(COP(=O)(N2CC2)N2CC2)cc1Oc1ccc2c(c1)OCO2` [Compound 2888], the “Max. BW loss %” value in series [2] (10 mpk) came out at 4.8%. The IC50 with H460 cells stood at 3 nM. In series [3] (10 mpk), the “TGD 500” value was 6 days and the “TGD 1000” value is on record as 6 days. The inhibition in vivo at 10 mg/kg in series [3] (Mus musculus, read-out: TGI) was 37.3%. Moreover, in series [4], the AUC was 1600 ng·h/mL, the Cmax stood at 5810 ng/mL, the Tmax is 5 min and the half-life is 10.9 min.
Take `CC(=O)[C@H]1CC[C@H]2[C@@H]3CCC4=CC(=O)CC[C@]4(C)[C@H]3CC[C@]12C` [Progesterone, progesterone, reference compound]: the “% Remaining” value on AKR1C3 (0 min) was 100%; at AKR1C3 (15 min), 70.8%; on AKR1C3 (30 min), 49.2%; on AKR1C3 (60 min), 20.1%; on AKR1C3 (90 min), 10.6%; on AKR1C3 (120 min) it was 6.40%. Moreover, on AKR1C3 (in words), the “disappearance in the presence of AKR1C3” value is “reduced slowly”.
In the case of `CC(OP(=O)(N1CC1)N1CC1)c1ccc([N+](=O)[O-])c(Oc2ccc(S(C)(=O)=O)cc2)c1` (stereo not drawn) [Compound 2883], in the series on A549 NSCLC xenograft (10 mg/kg IP QD × 5/wk × 2 wks), the “TGD 500” value is recorded as >85 days and the inhibition of tumour growth (TGI) is reported as 93.5%. Moreover, the “Max. BW loss %” value in series [1] (10 mg/kg IP QD × 5/wk × 2 wks) is on record as 15.8%. Also, in series [1] (setting [5]), the “Lethal Tox” value was 5. Besides, the IC50 with H460 cells stood at 30 nM. For the same compound, in series [4], the AUC was 9080 ng·h/mL, the Cmax stood at 7570 ng/mL, the Tmax was 15 min and the half-life came to 23.4 min.
